The values that follow are results of earlier work, collected in EP1204793B1, “STABLE SILICONE OIL EMULSION COMPOSITION, ARTICLE OF MANUFACTURE, AND METHOD OF FABRIC WRINKLE CONTROL” (THE PROCTER & GAMBLE COMPANY, priority 1999, dated 2001).

Molecules are shown by their SMILES. Counter-ions that a name gives are not always drawn.

With `[H]/N=C(\N/C(=N/[H])NCCCCCCNC(=N)NC(=N)Nc1ccc(Cl)cc1)Nc1ccc(Cl)cc1` [diacetate salt, 1,1'-hexamethylene bis(5-(p-chlorophenyl)biguanide)], the solubility in water entry is listed as “about 1.8%”.
As for `[H]/N=C(\N/C(=N/[H])NCCCCCCNC(=N)NC(=N)Nc1ccc(Cl)cc1)Nc1ccc(Cl)cc1` [digluconate salt, 1,1'-hexamethylene bis(5-(p-chlorophenyl)biguanide)], the solubility in water entry is “about 70%”.
